Measurements from the supplement of paper PMC13380429.
Where a name gives a salt, the structure may show the parent alone.

Assays:
Conditions in all cases: 72 h
Calu-3 [1] = experiment: cell viability relative to DMSO; higher = less toxic
U2OS [2] = experiment: as above
HepG2 [3] = experiment: as above
Vero E6 [4] = experiment: as above
Caco-2 [5] = experiment: as above
Calu-3 [6] = experiment: drug sensitivity score (DSS) for viability; higher = more toxic; extreme values may be limits of the assay
U2OS [7] = experiment: as above
HepG2 [8] = experiment: as above
Vero E6 [9] = experiment: as above
Caco-2 [10] = experiment: as above
HepG2 [11] = experiment: relative viability EC50 (midpoint between 100% and the lowest measured viability); higher = less toxic
U2OS [12] = experiment: as above
Caco-2 [13] = experiment: as above
Vero E6 [14] = experiment: as above

Compound	cell viability (Calu-3 [1]; 1 nM)	cell viability (Calu-3 [1]; 10 nM)	cell viability (Calu-3 [1]; 100 nM)	cell viability (Calu-3 [1]; 1000 nM)	cell viability (Calu-3 [1]; 10000 nM)	cell viability (U2OS [2]; 1 nM)	cell viability (U2OS [2]; 10 nM)	cell viability (U2OS [2]; 100 nM)	cell viability (U2OS [2]; 1000 nM)	cell viability (U2OS [2]; 10000 nM)	cell viability (HepG2 [3]; 1 nM)	cell viability (HepG2 [3]; 10 nM)	cell viability (HepG2 [3]; 100 nM)	cell viability (HepG2 [3]; 1000 nM)	cell viability (HepG2 [3]; 10000 nM)	cell viability (Vero E6 [4]; 1 nM)	cell viability (Vero E6 [4]; 10 nM)	cell viability (Vero E6 [4]; 100 nM)	cell viability (Vero E6 [4]; 1000 nM)	cell viability (Vero E6 [4]; 10000 nM)	cell viability (Caco-2 [5]; 1 nM)	cell viability (Caco-2 [5]; 10 nM)	cell viability (Caco-2 [5]; 100 nM)	cell viability (Caco-2 [5]; 1000 nM)	cell viability (Caco-2 [5]; 10000 nM)	drug sensitivity score (Calu-3 [6])	drug sensitivity score (U2OS [7])	drug sensitivity score (HepG2 [8])	drug sensitivity score (Vero E6 [9])	drug sensitivity score (Caco-2 [10])	relative viability EC50 (HepG2 [11])	relative viability EC50 (U2OS [12])	relative viability EC50 (Caco-2 [13])	relative viability EC50 (Vero E6 [14])
Nc1nc(Cl)nc2c1ncn2[C@@H]1O[C@H](CO)[C@@H](O)[C@@H]1F [clofarabine]	91.4%	106%	96.2%	64.8%	54.6%	99.9%	101%	105%	79.7%	65.5%	94.1%	100%	89.2%	33.3%	39.3%	96.2%	91.5%	96.6%	87.8%	55.9%	90.2%	102%	88.8%	85.9%	71.5%	6.8	4	14.1	4	2.8	0.192 µM			
COc1ccc(C(=O)C2CCN(CC(=O)N(Cc3nc4c(c(=O)[nH]3)COCC4)CC3CC3)CC2)cc1 [NVP-TNKS656]	95.3%	97.3%	70.3%	68.2%	82.7%	99%	96.7%	91.5%	88.9%	90.6%	98.7%	106%	106%	106%	93.6%	105%	101%	83.1%	63.1%	65.9%	110%	96.7%	92.9%	109%	93.3%	9.5	0.3	0	8.7	0	> 10 µM	> 10 µM	> 10 µM	
COc1ccccc1OCC(O)CNC(C)C (stereo not given) [moprolol]						101%	96.6%	99.7%	102%	103%	98.3%	113%	100%	98.3%	103%	102%	99.6%	105%	99.5%	102%	97.7%	95.4%	99.6%	98.2%	92.7%		0	0	0	0	> 10 µM	> 10 µM	> 10 µM	> 10 µM
Clc1ccc2nsnc2c1NC1=NCCN1 [tizanidine]																										0	0	0	0					
CCNC(=O)[C@@H]1CCCN1C(=O)[C@H](CCCNC(=N)N)NC(=O)[C@H](CC(C)C)NC(=O)[C@@H](C)NC(=O)[C@H](Cc1ccc(O)cc1)NC(=O)[C@H](CO)NC(=O)[C@H](Cc1c[nH]c2ccccc12)NC(=O)[C@H](Cc1cnc[nH]1)NC(=O)[C@@H]1CCC(=O)N1 [alarelin]											97.8%	103%	101%	92%	93.7%	109%	106%	104%	96.9%	102%	116%	100%	86.3%	118%	102%			0	0	0	> 10 µM		> 10 µM	> 10 µM
CN(C)[C@@H]1C(O)=C(C(N)=O)C(=O)[C@@]2(O)C(O)=C3C(=O)c4c(O)ccc(Cl)c4[C@@](C)(O)[C@H]3C[C@@H]12 [CHLORTETRACYCLINE HYDROCHLORIDE]																										0	0	0	0					
CN(C)c1ccc2nc3ccc(=[N+](C)C)cc-3sc2c1 [methylene-blue]																										6.1	3	9.2	5.1					
Cc1cccc(-c2[nH]c(C(C)(C)C)nc2-c2ccc3c(c2)OCO3)n1	102%	95.2%	107%	103%	70.3%	98.8%	98.6%	90.6%	95.4%	69.2%	94.6%	102%	101%	75.2%	4.5%	104%	101%	107%	96.2%	81.7%	95.4%	94.3%	98.3%	77.1%	15%	1.1	2.1	9.1	0.9	8.2	1.52 µM		1.49 µM	> 10 µM
C/C=C(/C)C(=O)O[C@H]1[C@H](OC(C)=O)[C@@]2(CO)C(CC1(C)C)C1=CCC3[C@@]4(C)CCC(O[C@@H]5O[C@H](C(=O)O)[C@@H](O[C@@H]6O[C@H](CO)[C@@H](O)[C@H](O)[C@H]6O)[C@H](O)[C@H]5O[C@@H]5O[C@H](CO)[C@@H](O)[C@H](O)[C@H]5O)[C@](C)(CO)C4CC[C@@]3(C)[C@]1(C)C[C@H]2O.C/C=C(\C)C(=O)O[C@H]1[C@H](OC(C)=O)[C@@]2(CO)C(CC1(C)C)C1=CCC3[C@@]4(C)CCC(O[C@@H]5O[C@H](C(=O)O)[C@@H](O[C@@H]6O[C@H](CO)[C@@H](O)[C@H](O)[C@H]6O)[C@H](O)[C@H]5O[C@@H]5O[C@H](CO)[C@@H](O)[C@H](O)[C@H]5O)[C@](C)(CO)C4CC[C@@]3(C)[C@]1(C)C[C@H]2O (stereo not given in full) [escin]																										0	1.5	3.8	4.1					
C[C@]12CC[C@@H]3c4ccc(O)cc4CC[C@H]3[C@@H]1CC[C@@H]2O [estradiol]																										0	0	0	0					
N#Cc1ccc(COC[C@H]2O[C@@H](n3c(NCc4ccc(Cl)c(Cl)c4)nc4c(N)ncnc43)[C@H](O)[C@@H]2O)cc1	96.9%	93.3%	99.6%	86.2%	52.8%	95.6%	97.9%	93.7%	97.4%	64.9%	94.2%	93.4%	101%	82.5%	20.4%	101%	97.8%	106%	99.9%	99.4%	94.5%	98.9%	91.8%	101%	52.8%	4.5	2	7.2	0	2.3	1.66 µM			> 10 µM
Nc1cc2c3ccccc3ccc2c2ccccc12 [6-aminochrysene]																										0	4.4	3	0.2					
Nc1nc2cc(-c3ccc4ncc(C(=O)N5CCOCC5)n4c3)ccc2o1 [MLN1117]	94.2%	102%	104%	96.8%	64.7%	96.4%	95.2%	106%	91.2%	84.3%	98.1%	101%	102%	96.3%	54.5%	104%	106%	106%	95.1%	85.8%	107%	101%	107%	89.9%	66.6%	2.2	1	2.9	0.5	3		> 10 µM		> 10 µM
Oc1cccc(Nc2ncc(F)c(Nc3cccc(O)c3)n2)c1 [R112]	92.2%	100%	92.6%	92.6%	74.8%	97.6%	101%	95.6%	98.5%	30.2%	106%	102%	107%	96.1%	30.9%	103%	102%	99.9%	99%	46.6%	103%	107%	99.1%	94.7%	62.1%	1.4	4	4.4	3	2.7	2.72 µM	3.01 µM		3.03 µM
CC(=O)OCC(=O)[C@@]1(O)[C@@H](C)C[C@H]2[C@@H]3CCC4=CC(=O)C=C[C@]4(C)[C@@]3(F)[C@@H](O)C[C@@]21C [betamethasone-acetate]																										0	0	0	0					
C=C1/C(=C\C=C2/CCC[C@]3(C)[C@@H]([C@H](C)CC[C@@H](O)C(C)C)CC[C@@H]23)C[C@@H](O)C[C@@H]1O [tacalcitol]																										0	0.3	0	1.9					
